Data published in PubChem BioAssay (NCI).
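Compound exposure: 48 hours, 5 concentrations, 96-well plates. GI50 marks 50% less growth. TGI is the concentration that stops growth completely.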

Tests used:
Test in all cases: inhibition of tumour cell growth, NCI panel, 48 h; in the data active means GI50 below about 0.43 µM; inactive means the rest
SN12C renal = system: SN12C renal
T-47D breast = system: T-47D breast
NCI/ADR-RES ovarian = system: NCI/ADR-RES ovarian
M14 melanoma = system: M14 melanoma
IGROV1 ovarian = system: IGROV1 ovarian
SK-MEL-2 melanoma = system: SK-MEL-2 melanoma
HCC-2998 colon = system: HCC-2998 colon
NCI-H522 lung = system: NCI-H522 lung
CCRF-CEM leukemia = system: CCRF-CEM leukemia
OVCAR-3 ovarian = system: OVCAR-3 ovarian
PC-3 prostate = system: PC-3 prostate
A549 NSCLC = system: A549 NSCLC
HL-60(TB) leukemia = system: HL-60(TB) leukemia
MALME-3M melanoma = system: MALME-3M melanoma
DU-145 prostate = system: DU-145 prostate
SF-268 CNS = system: SF-268 CNS
MDA-MB-435 = system: MDA-MB-435
UACC-257 melanoma = system: UACC-257 melanoma
OVCAR-4 ovarian = system: OVCAR-4 ovarian
NCI-H23 lung = system: NCI-H23 lung
RXF 393 renal = system: RXF 393 renal
NCI-H460 lung = system: NCI-H460 lung
HT29 colon = system: HT29 colon
SF-539 CNS = system: SF-539 CNS
NCI-H226 lung = system: NCI-H226 lung
SK-MEL-28 melanoma = system: SK-MEL-28 melanoma
SK-MEL-5 melanoma = system: SK-MEL-5 melanoma
HCT-116 colon = system: HCT-116 colon
SNB-19 CNS = system: SNB-19 CNS
SW-620 colon = system: SW-620 colon
786-0 renal = system: 786-0 renal
UACC-62 melanoma = system: UACC-62 melanoma
A498 renal = system: A498 renal
KM12 colon = system: KM12 colon
LOX IMVI melanoma = system: LOX IMVI melanoma
OVCAR-5 ovarian = system: OVCAR-5 ovarian
HOP-92 NSCLC = system: HOP-92 NSCLC
MCF7 breast = system: MCF7 breast
RPMI-8226 leukemia = system: RPMI-8226 leukemia
HS 578T breast = system: HS 578T breast
SK-OV-3 ovarian = system: SK-OV-3 ovarian
TK-10 renal = system: TK-10 renal
CAKI-1 renal = system: CAKI-1 renal
MOLT-4 leukemia = system: MOLT-4 leukemia
OVCAR-8 ovarian = system: OVCAR-8 ovarian
K-562 leukemia = system: K-562 leukemia
SR leukemia = system: SR leukemia
HOP-62 NSCLC = system: HOP-62 NSCLC
SF-295 CNS = system: SF-295 CNS
SNB-75 CNS = system: SNB-75 CNS
HCT-15 colon = system: HCT-15 colon
MDA-MB-231 breast = system: MDA-MB-231 breast
UO-31 renal = system: UO-31 renal
ACHN renal = system: ACHN renal
COLO 205 colon = system: COLO 205 colon
U251 CNS = system: U251 CNS
BT-549 breast = system: BT-549 breast

Cn1c(=O)c(Oc2ccc(F)cc2)cc2cnc(NC3CCOCC3)nc21
inactive: GI50 (SN12C renal) > 25 µM | GI50 (T-47D breast) 22.2 µM | GI50 (NCI/ADR-RES ovarian) > 25 µM | GI50 (M14 melanoma) > 25 µM | GI50 (IGROV1 ovarian) > 25 µM | GI50 (SK-MEL-2 melanoma) > 25 µM | GI50 (HCC-2998 colon) > 25 µM | GI50 (NCI-H522 lung) > 25 µM | GI50 (CCRF-CEM leukemia) > 25 µM | GI50 (OVCAR-3 ovarian) > 25 µM | GI50 (PC-3 prostate) > 25 µM | GI50 (A549 NSCLC) > 25 µM | GI50 (HL-60(TB) leukemia) > 25 µM | GI50 (MALME-3M melanoma) > 25 µM | GI50 (DU-145 prostate) > 25 µM | GI50 (SF-268 CNS) > 25 µM | GI50 (MDA-MB-435) > 25 µM | GI50 (UACC-257 melanoma) > 25 µM | GI50 (OVCAR-4 ovarian) > 25 µM | GI50 (NCI-H23 lung) > 25 µM | GI50 (RXF 393 renal) 24.7 µM | GI50 (NCI-H460 lung) > 25 µM | GI50 (HT29 colon) > 25 µM | GI50 (SF-539 CNS) > 25 µM | GI50 (NCI-H226 lung) > 17.1 µM | GI50 (SK-MEL-28 melanoma) > 25 µM | GI50 (SK-MEL-5 melanoma) > 25 µM | GI50 (HCT-116 colon) > 25 µM | GI50 (SNB-19 CNS) > 25 µM | GI50 (SW-620 colon) > 25 µM | GI50 (786-0 renal) > 25 µM | GI50 (UACC-62 melanoma) > 25 µM | GI50 (A498 renal) 13.4 µM | GI50 (KM12 colon) > 25 µM | GI50 (LOX IMVI melanoma) > 25 µM | GI50 (OVCAR-5 ovarian) > 25 µM | GI50 (HOP-92 NSCLC) 4.72 µM | GI50 (MCF7 breast) > 25 µM | GI50 (RPMI-8226 leukemia) > 25 µM | GI50 (HS 578T breast) > 25 µM | GI50 (SK-OV-3 ovarian) > 25 µM | GI50 (TK-10 renal) > 25 µM | GI50 (CAKI-1 renal) > 25 µM | GI50 (MOLT-4 leukemia) > 25 µM | GI50 (OVCAR-8 ovarian) > 25 µM | GI50 (K-562 leukemia) > 25 µM | GI50 (SR leukemia) > 25 µM | GI50 (HOP-62 NSCLC) > 25 µM | GI50 (SF-295 CNS) > 25 µM | GI50 (SNB-75 CNS) > 25 µM | GI50 (HCT-15 colon) > 25 µM | GI50 (MDA-MB-231 breast) > 25 µM | GI50 (UO-31 renal) > 10.5 µM | GI50 (ACHN renal) > 25 µM | GI50 (COLO 205 colon) > 25 µM | GI50 (U251 CNS) > 25 µM | GI50 (BT-549 breast) > 25 µM
> 25 µM: TGI (SN12C renal) | TGI (T-47D breast) | TGI (NCI/ADR-RES ovarian) | TGI (M14 melanoma) | TGI (IGROV1 ovarian) | TGI (SK-MEL-2 melanoma) | TGI (HCC-2998 colon) | TGI (NCI-H522 lung) | TGI (CCRF-CEM leukemia) | TGI (OVCAR-3 ovarian) | TGI (PC-3 prostate) | TGI (A549 NSCLC) | TGI (HL-60(TB) leukemia) | TGI (MALME-3M melanoma) | TGI (DU-145 prostate) | TGI (SF-268 CNS) | TGI (MDA-MB-435) | TGI (UACC-257 melanoma) | TGI (OVCAR-4 ovarian) | TGI (NCI-H23 lung) | TGI (RXF 393 renal) | TGI (NCI-H460 lung) | TGI (HT29 colon) | TGI (SF-539 CNS) | TGI (NCI-H226 lung) | TGI (SK-MEL-28 melanoma) | TGI (SK-MEL-5 melanoma) | TGI (HCT-116 colon) | TGI (SNB-19 CNS) | TGI (SW-620 colon) | TGI (786-0 renal) | TGI (UACC-62 melanoma) | TGI (A498 renal) | TGI (KM12 colon) | TGI (LOX IMVI melanoma) | TGI (OVCAR-5 ovarian) | TGI (HOP-92 NSCLC) | TGI (MCF7 breast) | TGI (RPMI-8226 leukemia) | TGI (HS 578T breast) | TGI (SK-OV-3 ovarian) | TGI (TK-10 renal) | TGI (CAKI-1 renal) | TGI (MOLT-4 leukemia) | TGI (OVCAR-8 ovarian) | TGI (K-562 leukemia) | TGI (SR leukemia) | TGI (HOP-62 NSCLC) | TGI (SF-295 CNS) | TGI (SNB-75 CNS) | TGI (HCT-15 colon) | TGI (MDA-MB-231 breast) | TGI (ACHN renal) | TGI (COLO 205 colon) | TGI (U251 CNS) | TGI (BT-549 breast)
> 18.6 µM: TGI (UO-31 renal)

C#Cc1nc(Nc2cc(C)[nH]n2)c2ccccc2n1
0.3 µM: TGI (A498 renal)
active: GI50 (SN12C renal) 0.236 µM | GI50 (T-47D breast) 0.39 µM | GI50 (NCI/ADR-RES ovarian) 0.402 µM | GI50 (M14 melanoma) 0.232 µM | GI50 (IGROV1 ovarian) 0.22 µM | GI50 (HCC-2998 colon) 0.216 µM | GI50 (CCRF-CEM leukemia) 0.248 µM | GI50 (OVCAR-3 ovarian) 0.242 µM | GI50 (PC-3 prostate) 0.317 µM | GI50 (A549 NSCLC) 0.394 µM | GI50 (HL-60(TB) leukemia) 0.265 µM | GI50 (MALME-3M melanoma) 0.295 µM | GI50 (DU-145 prostate) 0.396 µM | GI50 (SF-268 CNS) 0.313 µM | GI50 (MDA-MB-435) 0.213 µM | GI50 (UACC-257 melanoma) 0.2 µM | GI50 (OVCAR-4 ovarian) 0.347 µM | GI50 (RXF 393 renal) 0.136 µM | GI50 (NCI-H460 lung) 0.346 µM | GI50 (HT29 colon) 0.356 µM | GI50 (SF-539 CNS) 0.189 µM | GI50 (SK-MEL-28 melanoma) 0.363 µM | GI50 (SK-MEL-5 melanoma) 0.139 µM | GI50 (HCT-116 colon) 0.248 µM | GI50 (SW-620 colon) 0.327 µM | GI50 (786-0 renal) 0.349 µM | GI50 (UACC-62 melanoma) 0.165 µM | GI50 (A498 renal) 0.139 µM | GI50 (KM12 colon) 0.232 µM | GI50 (LOX IMVI melanoma) 0.151 µM | GI50 (OVCAR-5 ovarian) 0.332 µM | GI50 (HOP-92 NSCLC) 0.293 µM | GI50 (MCF7 breast) 0.197 µM | GI50 (RPMI-8226 leukemia) 0.0835 µM | GI50 (HS 578T breast) 0.318 µM | GI50 (TK-10 renal) 0.427 µM | GI50 (MOLT-4 leukemia) 0.25 µM | GI50 (OVCAR-8 ovarian) 0.325 µM | GI50 (K-562 leukemia) 0.349 µM | GI50 (SR leukemia) 0.226 µM | GI50 (SNB-75 CNS) 0.167 µM | GI50 (HCT-15 colon) 0.205 µM | GI50 (MDA-MB-231 breast) 0.203 µM | GI50 (UO-31 renal) 0.222 µM | GI50 (ACHN renal) 0.257 µM | GI50 (COLO 205 colon) 0.279 µM | GI50 (U251 CNS) 0.256 µM | GI50 (BT-549 breast) 0.233 µM
1.13 µM: TGI (786-0 renal)
1.67 µM: TGI (MCF7 breast)
0.559 µM: TGI (M14 melanoma)
0.915 µM: TGI (MALME-3M melanoma)
0.503 µM: TGI (KM12 colon)
0.475 µM: TGI (BT-549 breast)
0.451 µM: TGI (SF-539 CNS)
0.28 µM: TGI (SK-MEL-5 melanoma)
0.79 µM: TGI (SR leukemia)
0.46 µM: TGI (RPMI-8226 leukemia)
0.885 µM: TGI (U251 CNS)
1.3 µM: TGI (SW-620 colon)
2.24 µM: TGI (A549 NSCLC)
0.685 µM: TGI (MOLT-4 leukemia)
0.52 µM: TGI (OVCAR-3 ovarian)
inactive: GI50 (NCI-H522 lung) 0.476 µM | GI50 (NCI-H23 lung) 0.553 µM | GI50 (SNB-19 CNS) 2.27 µM | GI50 (SK-OV-3 ovarian) 3.19 µM | GI50 (CAKI-1 renal) 0.442 µM | GI50 (SF-295 CNS) 0.609 µM
1.99 µM: TGI (NCI-H522 lung)
1.43 µM: TGI (NCI-H460 lung)
0.995 µM: TGI (OVCAR-5 ovarian)
1.7 µM: TGI (DU-145 prostate)
1.25 µM: TGI (HOP-92 NSCLC)
0.308 µM: TGI (LOX IMVI melanoma)
0.424 µM: TGI (MDA-MB-231 breast)
3.59 µM: TGI (NCI-H23 lung)
0.951 µM: TGI (HCT-116 colon)
> 100 µM: TGI (NCI/ADR-RES ovarian) | TGI (SK-OV-3 ovarian) | TGI (OVCAR-8 ovarian) | TGI (K-562 leukemia)
1.4 µM: TGI (PC-3 prostate)
0.726 µM: TGI (SN12C renal)
2.11 µM: TGI (T-47D breast)
1.11 µM: TGI (SF-268 CNS)
1.31 µM: TGI (CCRF-CEM leukemia)
2.91 µM: TGI (TK-10 renal)
0.563 µM: TGI (IGROV1 ovarian) | TGI (MDA-MB-435)
81.1 µM: TGI (SNB-19 CNS)
> 46.2 µM: TGI (HS 578T breast)
11.3 µM: TGI (HT29 colon)
0.674 µM: TGI (COLO 205 colon)
1.71 µM: TGI (SK-MEL-28 melanoma) | TGI (ACHN renal)
0.466 µM: TGI (HCC-2998 colon)
0.332 µM: TGI (UACC-62 melanoma)
2.26 µM: TGI (SF-295 CNS)
2.02 µM: TGI (CAKI-1 renal)
0.474 µM: TGI (HCT-15 colon)
0.887 µM: TGI (HL-60(TB) leukemia)
0.513 µM: TGI (SNB-75 CNS)
0.792 µM: TGI (UO-31 renal)
0.631 µM: TGI (UACC-257 melanoma)
0.301 µM: TGI (RXF 393 renal)
